Experimental data reported in patent US11639384B2, “Treatment of pediatric BCP-ALL patients with an anti-KIR antibody” (UNIVERSITY CHILDREN'S HOSPITAL TÜBINGEN, priority 2014, dated 2023).
Entries after “also recorded” stand apart in the source; their conditions may differ. Like-named read-outs stand apart in the source and are kept apart here.

Experiments:
[1] = tested on: pediatric BCP-ALL; experiment: In vivo treatment with 5-aza-cytidine: leukemic burden in BM; conditions: non-humanized control NSG mice, low-dose regimen
[2] = Troetel et al., 1972; cited from earlier work
[3] = tested on: CD45+ cells; experiment: In vivo treatment with 5-aza-cytidine: BM cytotoxicity; conditions: low-dose, long-term treatment; huNSG and non-humanized control mice
[4] = tested on: BM-derived NK cells; experiment: In vivo treatment with 5-aza-cytidine: NK cell phenotype and subsets in BM; design: species or system huNSG mice
[5] = tested on: KIR2DS1 and KIR2DS2; conditions: cited from earlier work
[6] = tested on: NALM-16 cells; experiment: In vitro cytotoxicity of sorted KIR+ NKAES cells with KIR blockade; format: cell-based; conditions: 15 μg/ml, NALM-16, E:T ratio 2:1
Procedure: Target cells or cell lines were labeled with 0.5 μM CFSE (Vybrant CFDA SE Cell Tracer Kit®, Invitrogen, Germany) 1 day prior to use. NKAES cells were thawed, cultivated overnight and subsequently sorted into KIR^+ and KIR^− subsets following labeling with anti-CD158a (clone HP3E4 recognizing KIR2DL1/S1/S4), anti-CD158b (clone GL183 recognizing KIR2DL2/S2/L3) and anti-CD158e (clone DX9 recognizing 3DL1). KIR^+ and KIR^− NK cells were used as effector cells and cultured overnight in the presence of 100 IU/ml IL2. Co-incubation with NALM-16 cells was performed in triplicates at ratios between 10:1 and 2:1 for 5 h. Following staining with ARD-Ax350, cells were washed and analyzed. To correct for spontaneously occurring cell death, target cell monoculture controls were included in every experiment. The percentage of specific cytotoxicity was calculated as follows: (% CFSE^+ARD^+ dead targets−% CFSE^+ARD^+ spontaneously dead targets)/(100−% CFSE^+ ARD^+ spontaneously dead targets)×100%.
In vitro cytotoxicity was assayed as described in Example 1. […] Following staining with ARD-Ax350, cells were washed and analyzed.

[7] = tested on: inhibitory KIR; experiment: Lirilumab treatment of huNSG mice: inhibitory KIR expression; format: in vivo; conditions: 250 μg/mouse, preliminary data
Procedure: HuNSG mice were treated 14 days before the injection of leukemia cells with a complex of IL15/IL15Ra. One day prior to blasts injection, NK cells were additionally activated by intravenous injection of polyI:C and IPH2102. On the following day blasts were injected, and after 24 h the extent of tumor burden was quantified using 8-11 color flow cytometry.

[8] = tested on: KIR2DL1 and KIR2DL2/3; experiment: KIR binding specificity of anti-KIR mAbs: inhibitory KIR2DL; design: species or system human
[9] = tested on: BCP-ALL sample P23T; experiment: Lirilumab in NSG mice with adoptively transferred KIR-KIRL-matched NK cells: tumor burden; format: in vivo; conditions: P23T blasts, KIR-KIRL-matched activated NK cells, 2250 μg/mouse i.v., 24 h, preliminary data
Procedure: Naïve NSG mice were injected with blasts, followed by the injection of activated NK cells and subsequent intravenous injection of IPH2102 (2250 μg/mouse). Mice were euthanized after 24 h to quantify tumor burden. […] Data depicted in FIGS. 13B and D represent preliminary data performed in a small number of mice. The data provided in Examples 1-4 support the concept that NK cell immune-therapy, ideally performed with KIR-KIRL-mismatched donors, should have a role in the treatment of pediatric BCP-ALL disease.

[10] = tested on: KIR2DL2/3; experiment: KIR receptor occupancy on cells from KIR2DL2/3+ patients; format: in vivo, human
[11] = molecular target: KIR2DS4 (Homo sapiens, UniProt P43632); conditions: cited from earlier work
[12] = tested on: AML; experiment: Phase 1 overall survival of AML patients; format: in vivo, human; conditions: 1 and 3 mg/kg
[13] = tested on: HLA-Cw3+ and HLA-Cw4+ targets; conditions: cited from earlier work
[14] = WO 2006/003179; cited from earlier work
[15] = tested on: KIR2DL2/3; conditions: cited from earlier work
[16] = tested on: KIR receptor; conditions: cited from earlier work
[17] = molecular target: KIR2DS3 (Homo sapiens, UniProt Q14952); conditions: cited from earlier work
[18] = tested on: KIR2DL1 and KIR2DL2/3; conditions: literature and WO 2006/003179; cited from earlier work
[19] = tested on: AML; conditions: cited from earlier work

Sequence of KIR2DS4 (P43632 22-304): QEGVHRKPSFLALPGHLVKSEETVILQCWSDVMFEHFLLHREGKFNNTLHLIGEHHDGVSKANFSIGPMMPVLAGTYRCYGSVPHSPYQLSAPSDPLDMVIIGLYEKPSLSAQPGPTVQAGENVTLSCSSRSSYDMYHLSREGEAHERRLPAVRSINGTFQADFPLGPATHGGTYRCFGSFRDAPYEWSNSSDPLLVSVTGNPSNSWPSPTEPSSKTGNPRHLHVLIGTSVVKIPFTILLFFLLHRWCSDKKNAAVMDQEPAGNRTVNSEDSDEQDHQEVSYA
Sequence of KIR2DS3 (Q14952 22-304): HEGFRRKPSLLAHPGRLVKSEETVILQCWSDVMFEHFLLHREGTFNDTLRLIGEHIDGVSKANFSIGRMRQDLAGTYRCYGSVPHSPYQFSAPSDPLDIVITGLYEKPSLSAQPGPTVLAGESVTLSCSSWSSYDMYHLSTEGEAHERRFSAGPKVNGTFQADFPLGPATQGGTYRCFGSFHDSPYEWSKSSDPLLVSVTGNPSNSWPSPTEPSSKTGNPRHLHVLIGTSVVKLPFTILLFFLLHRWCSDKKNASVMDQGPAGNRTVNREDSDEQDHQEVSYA

Nc1ncn([C@@H]2O[C@H](CO)[C@@H](O)[C@H]2O)c(=O)n1 [5-aza-cytidine]
direct cytotoxic effect on pediatric BCP-ALL [1]: largely excluded; also recorded: does not exert relevant direct cytotoxic effects | half-life [2]: less than 4 h | BM cytotoxicity: human and murine CD45+ cells [3]: statistically insignificant reduction; also recorded: does not exert statistically relevant BM cytotoxicity | expression of inhibitory (KIRs, NKG2A) and activating (NKp44, NKG2D) NK cell receptors ([4]; BM-derived NK cells of huNSG mice, low doses): did not significantly modulate the expression; also recorded: does not significantly alter the expression | numbers of immature NK cell precursors and mature NK cell subsets in BM ([4]; huNSG mice, low-dose long-term treatment): distinctly higher numbers of both immature and mature NK cell subsets; also recorded: clearly higher numbers; also recorded: induces the expression of BM-residing NK cell precursors

lirilumab: 1-7F9(S241P) variant, human IgG4 anti-KIR2DL1/2/3 mAb; H chain SEQ ID NO:4, L chain SEQ ID NO:5
binding to KIR2DS1 and KIR2DS2 [5]: bind to KIR2DS1 and KIR2DS2 | effect on cytotoxicity of KIR+ NK cells of KIR-KIRL-matched donors [6]: distinctly enhanced | effect on cytotoxicity of KIR+ NK cells of KIR-KIRL-mismatched donors [6]: did not respond to inhibitory KIR blockade | levels of inhibitory KIR expression [7]: very low levels; also recorded: barely detectable levels | levels of inhibitory KIR expression ([7]; listed as lirilumab (IPH2102)): negligible | effect of S241P mutation on affinity for KIR2DL1 and KIR2DL2/3 [8]: equalizes the affinity for KIR2DL1 and KIR2DL2/3 | specificity and affinity of binding to KIR targets ([8]; inferred from identical CDRs and variable regions): the same as that exhibited by 1-7F9 | tumor burden [9]: significant reduction of tumor burden | KIR receptor occupancy ([10]; 1 mg/kg, over a 28-day period): ~100% | binding to KIR2DS4 [11]: none of 1-7F9, lirilumab and 1-4F1 binds to KIR2DS4

1-7F9: KIR2DL-cross-reactive fully human IgG4 kappa mAb; H chain SEQ ID NO:3, L chain SEQ ID NO:5
improvement of OS versus <0.3 mg/kg group [12]: ~18 months | binding to KIR2DS1 and KIR2DS2 [5]: bind to KIR2DS1 and KIR2DS2 | reconstitution of cell lysis by NK cells against Cw4-positive targets ([13]; WO 2005/003168, Example 4): almost completely reconstitutes lysis | potentiation of NK cell cytolytic activity on HLA-Cw3+ and HLA-Cw4+ targets ([13]; WO 2005/003168): strongly potentiate NK cell cytolytic activity | IgG4 half-molecule formation [14]: did not reveal half-molecule formation | blocking of binding of group 1 HLA-C (HLA-Cw3) to KIR2DL2/3 [15]: blocks | duration of full (>90%) KIR receptor occupancy ([16]; 0.075 mg/kg): 1 week | duration of full (>90%) KIR receptor occupancy ([16]; 1 mg/kg): 2 weeks | duration of KIR saturation (>30% KIR occupancy) ([16]; 3 mg/kg): 24-32 weeks | duration of full (>90%) KIR receptor occupancy ([16]; 3 mg/kg): at least 4 weeks | binding to KIR2DS3 [17]: does not bind to the stimulatory KIR, KIR2DS3 | receptor occupancy ([10]; 0.2 mg/kg and 2 mg/kg, 28-day period): good receptor occupancy throughout the 28-day period | KIRs bound / recognized [18]: binds specifically to both KIR2DL1 and KIR2DL2/3 | binding to KIR2DS4 [11]: does not bind to the stimulatory KIR, KIR2DS4; also recorded: none of 1-7F9, lirilumab and 1-4F1 binds to KIR2DS4 | overall survival (OS) ([19]; 6 AML patients, dosages of 1 and 3 mg/kg): 29.7 months | overall survival (OS) ([19]; 16 AML patients, <0.3 mg/kg): 11.8 months
